Reference: patent US9155743B2, “Bicyclic heterocycle compounds and their uses in therapy” (priority 2011, dated 2015)
Counter-ions that a name gives are not always drawn. Like-named read-outs stand apart in the source and are kept apart here.

Columns and labels:
[1] = test system: EVSA-T (human breast carcinoma); assay: Anti-proliferative activity, Alamar Blue assay, EVSA-T; type: cell-based; conditions: for inhibition at 10 µM: read-out: EC50 or PI EVSA-T prolif (percentage inhibition)
cIAP-1 BIR3 domain = cIAP-1 BIR3 domain (Homo sapiens (Human), UniProt Q13490); assay: cIAP-1 in vitro competitive displacement binding assay (fluorescence polarization); conditions: given as ranges, read-out: IC50 or PI cIAP1
XIAP BIR3 domain = XIAP BIR3 domain (Homo sapiens (Human), UniProt P98170); assay: XIAP in vitro competitive displacement binding assay (fluorescence polarization); conditions: given as ranges; a range also covers PI >= approx 50% at <= the upper concentration; read-out: IC50 or PI Xiap
XIAP or cIAP1 = assay: Assays using XIAP and cIAP1 (result stated for XIAP or cIAP1); type: binding, human
[2] = EVSA-T, 72 hours compound incubation, read-out: EC50 or PI EVSA-T prolif
[3] = read-out: EC50 or greater than 50% at 10 μM, EVSA-T cell line
[4] = AbuRPFK(5&6FAM)-amide probe (Probe B)
[5] = read-out: IC50 or at least 50% inhibition of the activity at a concentration of 1 μM, against XIAP or cIAP1
[6] = read-out: IC50 or at least 50% inhibition of the activity at a concentration of 10 μM, against XIAP or cIAP1

| Compound | EC50 [1, 2] [nM] | EC50 [1, 3] [nM] | IC50 (cIAP-1 BIR3 domain; [4]) [nM] | IC50 (XIAP BIR3 domain) [nM] | IC50 (XIAP or cIAP1; [5]) [µM] | IC50 (XIAP or cIAP1; [6]) [µM] | IC50 (cIAP-1 BIR3 domain; AVPIK(5&6FAM)-amide probe (Probe A)) [nM] | inhibition at 10 µM ([1]; EVSA-T) [%] | EC50 ([1]; EVSA-T, 72 h, read-out: EC50 or PI EVSA-T prolif) [nM] | EC50 ([1]; EVSA-T, read-out: EC50 or greater than 50% at 10 μM) [nM] | IC50 (XIAP or cIAP1; read-out: IC50 or at least 50% inhibition of the activity at a concentration of 1 μM) [µM] | IC50 (XIAP or cIAP1; read-out: IC50 or at least 50% inhibition of the activity at a concentration of 10 μM) [µM] |
| --- | --- | --- | --- | --- | --- | --- | --- | --- | --- | --- | --- | --- |
| CN[C@@H](C)C(=O)Nc1ccc2c(n1)O[C@@](C)(c1ccccc1)C(=O)N2c1ccc(Cl)cc1 [Example 3, (S)—N—[(S)-1-(4-Chloro-phenyl)-3-methyl-2-oxo-3-phenyl-2,3-dihydro-1H-pyrido[2,3-b][1,4]oxazin-6-yl]-2-methylamino-propionamide hydrochloride] | 280 | < 10000 | 10 to 1000 | 10 to 1000 | < 1 | < 10 |  |  |  |  |  |  |
| CN[C@@H](C)C(=O)Nc1ccc2c(n1)O[C@@H](Cc1ccccc1)C(=O)N2 [Example 4, (S)—N—((S)-3-Benzyl-2-oxo-2,3-dihydro-1H-pyrido[2,3-b][1,4]oxazin-6-yl)-2-methylamino-propionamide hydrochloride] |  |  |  | 1000 to 10000 | < 1 | < 10 | 10 to 1000 | -13 |  |  |  |  |
| CN[C@@H](C)C(=O)Nc1ccc2c(n1)OC(C)(C)C(=O)N2c1ccc(Cl)cc1 [Example 6, (S)-N-[1-(4-Chloro-phenyl)-3,3-dimethyl-2-oxo-2,3-dihydro-1H-pyrido[2,3-b][1,4]oxazin-6-yl]-2-methylamino-propionamide hydrochloride] | 120 | < 10000 | 10 to 1000 | 10 to 1000 | < 1 | < 10 |  |  |  |  |  |  |
| CN[C@@H](C)C(=O)Nc1ccc2c(n1)OC1(CCCCC1)C(=O)N2c1ccc(Cl)cc1 [Example 7, (2S)-N-[4′-(4-Chlorophenyl)-3′-oxo-3′,4′-dihydrospiro[cyclohexane-1,2′-pyrido[2,3-b][1,4]oxazine]-7′-yl]-2-(methylamino)propanamide hydrochloride] | 440 | < 10000 | 10 to 1000 | 10 to 1000 | < 1 | < 10 |  |  |  |  |  |  |
| CN[C@@H](C)C(=O)Nc1ccc2c(n1)OC1(CCCC1)C(=O)N2c1ccc(Cl)cc1 [Example 8, (2S)-N-[4′-(4-Chlorophenyl)-3′-oxo-3′,4′-dihydrospiro[cyclopentane-1,2′-pyrido[2,3-b][1,4]oxazine]-7′-yl]-2-(methylamino)propanamide hydrochloride] | 190 | < 10000 | 10 to 1000 | 10 to 1000 | < 1 | < 10 |  |  |  |  |  |  |
| CN[C@@H](C)C(=O)Nc1ccc2c(n1)OC1(Cc3ccccc3C1)C(=O)N2c1ccc(Cl)cc1 [Example 9, (2S)-N-[4′-(4-Chlorophenyl)-3′-oxo-1,3,3′,4′-tetrahydrospiro[indene-2,2′-pyrido[2,3-b][1,4]oxazine]-7′-yl]-2-(methylamino)propanamide hydrochloride] | 120 | < 10000 | 10 to 1000 | 10 to 1000 | < 1 | < 10 |  |  |  |  |  |  |
| CN[C@@H](C)C(=O)Nc1ccc2c(n1)CN(c1cccc(Cl)c1)C(=O)N2c1cccc(Cl)c1 [Example 24, (S)—N-[1,3-Bis-(3-chloro-phenyl)-2-oxo-1,2,3,4-tetrahydro-pyrido[3,2-d]pyrimidin-6-yl]-2-methylamino-propionamide hydrochloride] | 360 | < 10000 | 10 to 1000 | 10 to 1000 | < 1 | < 10 |  |  |  |  |  |  |
| CN[C@@H](C)C(=O)Nc1ccc2c(n1)CN(c1cc(Cl)cc(Cl)c1)C(=O)N2c1cc(Cl)cc(Cl)c1 [Example 25, (S)—N-[1,3-Bis-(3,5-dichloro-phenyl)-2-oxo-1,2,3,4-tetrahydro-pyrido[3,2-d]pyrimidin-6-yl]-2-methylamino-propionamide hydrochloride] | 2300 | < 10000 | 10 to 1000 | 10 to 1000 | < 1 | < 10 |  |  |  |  |  |  |
| CCC1(CC)Oc2nc(NC(=O)[C@H](C)N)ccc2N(c2ccc(Cl)cc2)C1=O [Example 45, (S)-2-Amino-N-[1-(4-chloro-phenyl)-3,3-diethyl-2-oxo-2,3-dihydro-1H-pyrido[2,3-b][1,4]oxazin-6-yl]-propionamide hydrochloride] |  |  |  | 10 to 1000 |  |  |  |  | 2900 | < 10000 | < 1 | < 10 |

Now from value to compound, other results behind:

| EC50 [1, 2] [nM] | EC50 [1, 3] [nM] | IC50 (cIAP-1 BIR3 domain; [4]) [nM] | IC50 (XIAP BIR3 domain) [nM] | IC50 (XIAP or cIAP1; [5]) [µM] | IC50 (XIAP or cIAP1; [6]) [µM] | IC50 (cIAP-1 BIR3 domain; AVPIK(5&6FAM)-amide probe (Probe A)) [nM] | Compound | inhibition at 10 µM ([1]; EVSA-T) [%] | EC50 ([1]; EVSA-T, 72 h, read-out: EC50 or PI EVSA-T prolif) [nM] | EC50 ([1]; EVSA-T, read-out: EC50 or greater than 50% at 10 μM) [nM] | IC50 (XIAP or cIAP1; read-out: IC50 or at least 50% inhibition of the activity at a concentration of 1 μM) [µM] | IC50 (XIAP or cIAP1; read-out: IC50 or at least 50% inhibition of the activity at a concentration of 10 μM) [µM] |
| --- | --- | --- | --- | --- | --- | --- | --- | --- | --- | --- | --- | --- |
| 170 | < 10000 | 10 to 1000 | 10 to 1000 | < 1 | < 10 |  | CN[C@@H](C)C(=O)Nc1ccc2c(n1)OC(C)(C1CCCC1)C(=O)N2c1cccc(Cl)c1 (stereo partly drawn) [Example 13, (S)-N-[1-(3-Chloro-phenyl)-3-cyclopentyl-3-methyl-2-oxo-2,3-dihydro-1H-pyrido[2,3-b][1,4]oxazin-6-yl]-2-methylamino-propionamide hydrochloride] |  |  |  |  |  |
| 650 | < 10000 | 10 to 1000 | 10 to 1000 | < 1 | < 10 |  | CN[C@@H](C)C(=O)Nc1ccc2c(n1)CN(C1CCC(C)(C)CC1)C(=O)N2c1cccc(Cl)c1 [Example 35, (S)-N-[1-(3-Chloro-phenyl)-3-(4,4-dimethyl-cyclohexyl)-2-oxo-1,2,3,4-tetrahydro-pyrido[3,2-d]pyrimidin-6-yl]-2-methylamino-propionamide hydrochloride] |  |  |  |  |  |
| 880 | < 10000 | 10 to 1000 | 10 to 1000 | < 1 | < 10 |  | CN[C@@H](C)C(=O)Nc1ccc2c(n1)CN(C(C)C(C)C)C(=O)N2c1cccc(Cl)c1 (stereo partly drawn) [Example 36, (S)—N-[1-(3-Chloro-phenyl)-3-(1,2-dimethyl-propyl)-2-oxo-1,2,3,4-tetrahydro-pyrido[3,2-d]pyrimidin-6-yl]-2-methylamino-propionamide] |  |  |  |  |  |
| 620 | < 10000 | 10 to 1000 | 10 to 1000 | < 1 | < 10 |  | CN[C@@H](C)C(=O)Nc1ccc2c(n1)CN(C(C)C1CCC1)C(=O)N2c1cccc(Cl)c1 (stereo partly drawn) [Example 37, (S)-N-[1-(3-Chloro-phenyl)-3-(1-cyclobutyl-ethyl)-2-oxo-1,2,3,4-tetrahydro-pyrido[3,2-d]pyrimidin-6-yl]-2-methylamino-propionamide hydrochloride] |  |  |  |  |  |
|  | < 10000 | 10 to 1000 | 1000 to 10000 | < 1 | < 10 |  | CN[C@@H](C)C(=O)Nc1ccc2c(n1)CN(C1CCN(C(C)=O)CC1)C(=O)N2c1cccc(Cl)c1 [Example 38, (S)—N-[3-(1-Acetyl-piperidin-4-yl)-1-(3-chloro-phenyl)-2-oxo-1,2,3,4-tetrahydro-pyrido[3,2-d]pyrimidin-6-yl]-2-methylamino-propionamide] | 75 |  |  |  |  |
|  |  | 10 to 1000 | 10 to 1000 | < 1 | < 10 |  | CN[C@@H](C)C(=O)Nc1ccc2c(n1)CN(CC1CCCC1)C(=O)N2c1cccc(Cl)c1 [Example 42, (S)—N-[1-(3-Chloro-phenyl)-3-cyclopentylmethyl-2-oxo-1,2,3,4-tetrahydro-pyrido[3,2-d]pyrimidin-6-yl]-2-methylamino-propionamide hydrochloride] |  |  |  |  |  |
